In patent publication US7855297B2, “Amide derivatives and medicinal use thereof” (Mitsubishi Tanabe Pharma Corporation, priority 2000, dated 2010):

Columns and labels:
[1] = system: C5a-stimulated neutrophil; assay: Migrating ability of C5a-stimulated neutrophil; assay type: cell-based; conditions: 1.5 h, human neutrophils, C5a 100 pmol/L, 90 min, read-out: IC50 value, concentration at which migration of C5a-stimulated neutrophil is inhibited by 50%
Method: A neutrophil fraction was separately taken from human peripheral venous blood using Lympholyte-poly (Cedarlane) and suspended in RPMI 1640 medium (GIBCO BRL) supplemented with 0.1% bovine serum albumin (BSA). To. this neutrophil fraction (5×10^6 cells/mL) was added Calcein-AM (final concentration 5 μM, FUNAKOSHI), and the mixture was incubated at 37° C. for 30 min. The cells were washed by centrifugation and suspended to a concentration of 1×10^6 cells/mL. The migration was evaluated by adding neutrophils to chemotaxicell (pore size: 3 μm, KURABO) and measuring the neutrophils that migrated outside the chemotaxicell. First, 100 pmol/L of C5a solution was added to 24 well plate (500 μL/well) and chemotaxicell was set in the well. […] The fluorescent intensity of each well was measured by Cyto Fluor II (Ex: 485, Em: 530). The rate (% inhibition) of the inhibition of migration of C5a-stimulated neutrophil by the test compound was calculated by the following formula, wherein the fluorescence intensity of neutrophil that migrated by C5a stimulation without addition of the test compound is Max, the fluorescent intensity of neutrophil that migrated without addition of test compound and without C5a stimulation is Min, and the fluorescent intensity of neutrophil that migrated by C5a stimulation with the addition of the test compound is Test. % Inhibition=100−[(Test-Min)/(Max-Min)]×100 […]

[2] = system: C5a stimulated neutrophil; assay: Increase of intracellular Ca2+ concentration of C5a stimulated neutrophil; assay type: cell-based; conditions: human neutrophils
Method: A neutrophil fraction was separately taken from human peripheral venous blood using Lympholyte-poly (Cedarlane), and suspended in Hank's Balanced Salt Solution (HBSS, GIBCO BRL) supplemented with 1% fetal bovine serum (FBS). Then, Fura 2-AM (final concentration 5 μM, DOJINDO) was added to the neutrophil fraction (5×10^6 cells/mL), and the mixture was incubated at 37° C. for 40 min. The cells were washed by centrifugation and suspended to the concentration of 1×10^6 cells/mL. The intracellular Ca^2+ concentration was measured using a spectrophotofluorometer (CAF-110, JASCO Corporation), and calculated from the ratio (Ex340 value/Ex380 value) of fluorescent intensities at 500 nm upon excitation at 340 nm and 380 nm, the former being Ex340 value, the latter being Ex380 value. […] Then, Triton X-100 (final concentration 0.2%) was added and the cells were dissolved, and sb2 value, which was the […] then, and Rmax value, which was the Ex340 value/Ex380 value then, was measured. Then, EGTA (final concentration 3 mmol/L) was added and sf2 value, which was the […] then, and Rmin value, which was the Ex340/Ex380 value then, was measured. From these measurement results, the intracellular Ca^2+ concentration was calculated from the following formula. […]

IC50 [1]: 100 nM | IC50 ([2]; recombinant human C5a 100 pmol/L, read-out: IC50 value, concentration at which increase in intracellular Ca2+ concentration of C5a-stimulated neutrophil is inhibited by 50%): 5 nM
Structure (SMILES): CC(C)c1ccc(N(Cc2ccc(N(C)C)cc2)C(=O)C2CCCc3ccccc32)cc1 (stereo not drawn) [Example 4, N-[(4-dimethylaminophenyl)methyl]-N-(4-isopropylphenyl)-1,2,3,4-tetrahydronaphthalene-1-carboxamide]
agonistic action (increase in intracellular Ca2+ by the compound alone) ([2]; compound 3 μmol/L): did not induce an increase in intracellular Ca^2+ and the agonistic action was not found
